Reference: US20110244063A1, “NOVEL SEBUM SECRETION INHIBITORY AGENT” (BASF Beauty Care Solutions France S.A.S., priority 2008, published 2011)

Legend:
Type in all cases: in vivo, human
Asian volunteers = experiment: Self-evaluation of skin texture (refinement of skin grain) after stopping treatment; conditions: 2 days after stopping the treatment, extract at 2%, zinc gluconate positive control
Method: (§1) The experiment was conducted on Caucasian and Asian volunteers according to the conditions described in Example 3 for 28 days of treatment (last application on D27 in the evening). Assessments carried out on D30 allowed the persistence of the effect of an extract according to the invention on the production of sebum to be evaluated, two days after stopping the treatment.
Results for skin texture: (self-evaluation)
Moreover, 2 days after stopping the treatment, 71% of the Asian volunteers who had applied the extract according to Example 1 a) at 2% declared that there was refinement of their skin grain (p<0.05). In comparison, only 52% of the volunteers in the group of volunteers who had applied the positive control (zinc gluconate) noticed an improvement in this parameter.

[1] = test system: Caucasian and Asian volunteers; experiment: Number of active sebaceous glands (number of spots on Sebutape patches, image analysis)
Method: (§2) The principle of this evaluation is based on the clinical and instrumental analysis of samples of secretions of sebum using Sebutape™ patches according to the conventional method.
(§3) The products tested were: • the extract according to the invention prepared in accordance with Example 1 a) is tested at final concentrations of from 0.5% to 2% of extract 1 a) diluted in water • an aqueous solution of zinc gluconate at 1% (10 mg/mL; 2.2×10^−2 mol/L) in water is used as positive control • no solution as negative control
The following treatment was carried out for each of the products tested: Caucasian and Asian volunteers applied a test product once a day, in blind conditions. Clinical and instrumental assessments, by application of Sebutape™ patches, were carried out on D0, D14 and D28 and the contents of these samples of Sebutape™ patches were analysed quantitatively by image analyser (polarimetric imaging). […]
as §1

[2] = test system: Caucasian and Asian volunteers; experiment: Clinical assessment of pore size and shiny appearance in volunteers, once-daily topical application; conditions: after 28 days of treatment, extract at 2%, zinc gluconate 1%
Method: as §2, §3
(§4) The following treatment was carried out for each of the products tested: Caucasian and Asian volunteers applied a test product once a day, in blind conditions. Clinical and instrumental assessments, by application of Sebutape™ patches, were carried out on D0, D14 and D28 and the contents of these samples of Sebutape™ patches were analysed quantitatively by image analyser (polarimetric imaging).
as §1

[3] = test system: Caucasian and Asian volunteers; experiment: Squalene content of sebum sampled with Sebutape patches (HPTLC, densitometry); conditions: after 28 days of treatment; zinc gluconate 1%; signed change
Method: as §2, §3, §4
Determination of the squalene taken in the Sebutape™ patches was carried out as follows:
The Sebutape™ patches were treated by extraction with 10 ml of ether. […]
The squalene spots were then quantified by densitometry using an instrument of the ChromatoScan CS-93 (Shimadzu) type. Reading was based on absorption at 450 nm and the area of the peaks was expressed in arbitrary units in the table of results given below.

zinc gluconate [Zinc gluconate 1%]
Volunteers who declared refinement of their skin grain (self-evaluation) (Asian volunteers): 52%
Active sebaceous glands, % Dn/D0, 2 days after D28 ([1]; number of spots on Sebutape patches 2 days after stopping the treatment compared against D0): −3.8%
Active sebaceous glands, % Dn/D0, D28 ([1]; number of spots on Sebutape patches after 28 days compared against D0): +8.5%
Reduction of pore size (clinical assessment) [2]: 17.5%
Change of content of squalene in the sebum [3]: −14%
